The subject of data set [1] is PD-L1, TIGIT, AREG expression in human T cells. The data set can be described thus: PD-L1, TIGIT and AREG expression on human T cells in PBMC cultures. In kind it is cell-based. The following applies: 1.25 or 5 μM; one day post-stimulation; dose-dependent. The protocol: PBMC cells from a single donor mixed with additional irradiated antigen-presenting cells (APC) and anti-CD3 antibodies (UCHT1) were incubated in the presence of various concentrations of GPR174 inhibitory compound #10 (1.25 to 5 μM) or equivalent concentrations of vehicle (DMSO). The cells were analyzed by flow cytometry for expression of CD4, CD8, PD-L1, TIGIT and AREG.

Data set [2] deals with C57BL/6+DBA1 splenocytes. The data set can be described thus: Cytokines in C57BL/6 + DBA1 splenocyte co-culture. In kind it is cell-based, mouse. The following applies: 30 μM; day 6 after mixing. The protocol: In order to stimulate T cells in mice, splenocytes obtained from two different mouse strains, C57BL/6 and DBA1, were mixed in culture.
The effect of compound #10 on production of cytokines (IFN-γ, IL-5, TNF-α, IL-2, IL-6, IL-4, IL-10, IL-9, IL17A, IL17F, IL-21, IL-22 and IL-13) in mouse splenocyte co-cultures was determined as follows. Splenocytes obtained from two different mouse strains, C57BL/6 and DBA1, were mixed in culture in the presence or absence of 30 μM compound #10. Cytokine production of IFN-γ, IL-5, TNF-α, IL-2, IL-6, IL-4, IL-10, IL-9, IL-17A, IL-17F, IL-21, IL-22 and IL-13 was measured in the co-culture supernatant at day 4 and day 6 after mixing. Cytokine levels were determined by LEGENDplex™ bead-based immunoassays from BioLegend (San Diego, CA) according to the manufacturer's instructions.

The test system of data set [3] is CTLA4 expression in human PBMC T cells. The data set can be described thus: CTLA4 expression on T cell subsets in human PBMC cultures. The note with it: 0.19-6.0 μM; one day post-stimulation; dose-dependent. In kind it is cell-based. The protocol:
PBMC cells from a single donor were cultured overnight with additional irradiated antigen-presenting cells (APC) in the presence of various concentrations of GPR174 inhibitory compound #10 (0.019 to 6 μM) or equivalent concentrations of vehicle (DMSO). Anti-CD3 (OKT3) was then added to the cultures for an additional 24 hours. The cells were analyzed by flow cytometry for expression of FOXP3, CTLA-4, CD4, CD3, CD45RA and CD25.

For data set [4], the target named is T1, ADBR2 (Homo sapiens, UniProt P07550).
T1 construct: host or cells: HEK293 or CHO cell lines (ATCC)
T1 sequence (P07550 whole entry): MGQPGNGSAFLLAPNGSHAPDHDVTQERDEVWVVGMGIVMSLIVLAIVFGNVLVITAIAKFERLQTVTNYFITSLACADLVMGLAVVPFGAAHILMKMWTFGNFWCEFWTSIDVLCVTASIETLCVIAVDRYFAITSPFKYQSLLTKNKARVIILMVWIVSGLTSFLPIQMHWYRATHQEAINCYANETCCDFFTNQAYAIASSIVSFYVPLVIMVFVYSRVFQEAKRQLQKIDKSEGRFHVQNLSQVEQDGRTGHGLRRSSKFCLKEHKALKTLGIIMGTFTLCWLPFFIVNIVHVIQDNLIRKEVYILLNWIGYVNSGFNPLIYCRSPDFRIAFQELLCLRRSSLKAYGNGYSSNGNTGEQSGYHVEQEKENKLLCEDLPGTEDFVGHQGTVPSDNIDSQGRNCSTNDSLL
The data set can be described thus: CRE-Luc reporter Gs signaling assay, control receptor ADBR2. In kind it is cell-based. How it is done: Compounds were tested in the reporter system with increasing concentrations of GPR174-interacting compounds. GPR174 construct pCMV6-XL4-GPR174 or ADBR2, reporter of interest, pCRE-Luc or GL4.29 (3000 ng), and TK-renilla as an internal control (10 ng) with lipofectamine 2000 (60 ug) (Invitrogen, CA) according to the manufacturer's directions.
The DNA/lipofectamine 2000 mix (3000 μL) was incubated at room temperature for 30 minutes and then added into a 10 cm culture dish (Corning, NY) containing 70-90% confluent cultured cells, typically HEK293 or CHO cell lines (ATCC, VA), in 15 mL of media. The cells were further incubated for 4-6 hours at 37° C. and then media were removed and cells were detached with 2 mL trypsin (Life Technologies, CA). Media (26 mL) were added to the detached cells and 120 μL of transfected cells were transferred to each well on a 96-well plate. Increasing concentration of each compound in DMSO (1.2 μl) was added to the cells after plating into the 96-well plate. The cells were further incubated at 37° C. for various times. The media were removed and the cells lysed. Luciferase and renilla activities were measured with the Dual-luciferase assay system (Promega, WI) according to the manufacturer's directions. Typically, lysis buffer (25 μL) was added to the cells and incubated at room temperature for 20-30 minutes to allow for the cells to lyse. The lysate (10 μL) was measured for luciferase and renilla activity with LARII and Stop&Glo reagent (50 μL each) with a SpectraMax L (Molecular Devices, CA). Data were analyzed with either Excel (Microsoft, WA) or Prism 4.03 (GraphPad, CA).
ADBR2 is a GPCR, like GPR174, that activates the Gs signaling pathway.

The source of these data is US20230321083A1, “Inhibitors of GPR174 and Uses Thereof” (Omeros Corporation, priority 2016, published 2023).

In the case of `CC1CCN(c2cc(N3CCN(S(=O)(=O)c4ccccc4)CC3)c([N+](=O)[O-])cc2F)CC1` [Compound 10], in data set [1], the “fraction of human CD4+ T cells with AREG positive staining” value is “reduced”, the “fraction of human CD4+ T cells with PD-L1 positive staining” value is reported as “reduced” and the “fraction of human CD8+ T cells with TGIT positive staining” value is listed as “reduced”. Besides, the “fold induction of a panel of cytokines in splenocyte co-culture” value in data set [2] is on record as “strong alteration in quantities of cytokines”. In data set [3], the “CTLA4 positive fraction of memory Treg (CD45RA−FOXP3+)” value is listed as “reduced”, the “CTLA4 positive fraction of memory non-Treg (CD45RA−FOXP3−)” value is reported as “reduced”, the “CTLA4 positive fraction of naïve non-Treg cells (CD45RA+FOXP3−)” value is “reduced” and the “CTLA-4 positive fraction of naïve Treg cells (CD45RA+FOXP3+)” value is “reduced”. Further, the “effect on Gs pathway in the presence of ADBR2” value in data set [4] was “did not inhibit the Gs pathway”.
